Residues, ends and D or L forms follow the SMILES beside them.

Experiment [1] has as its system wild-type (WT) mice, middle cerebral artery occlusion. Description: Cerebral ischemia, no-reflow zone in the brain. The experiment is classed as in vivo, mouse. To be noted: i.p. at 0, 6, 24 and 48 hours after ischemia. On the procedure: Cerebral ischemia initiates a cascade of cellular and molecular events that lead to brain damage. One such event is an anatomic zone of no-reflow. Cerebral ischemia will be induced by occlusion of the right middle cerebral artery for 30 minutes. Wild-type (WT) mice will be given either saline vehicle (Veh), peptide conjugate, aromatic-cationic peptide, SPN10, SPN10 and aromatic-cationic peptide (2-5 mg/kg for the peptide conjugate and equivalent molar doses of aromatic-cationic peptide and/or SPN10 based on concentration of the aromatic-cationic peptide or SPN10 administered in the peptide conjugate group) i.p. at 0, 6, 24 and 48 hours after ischemia. Mice will be sacrificed 3 days after ischemia, and the brains sliced transversely into 6-8 sections. Sections will be photographed under ultraviolet light to identify the region of no-reflow. The areas of no-reflow in each slice will be digitized using Image J (supplier Rasband WS, Image J, National Institutes of Health, http://rsb.info.nih.gov/ij/). The areas in each slice will be multiplied by the weight of the slice and the results will be summed in order to obtain the mass of the no-reflow areas.

In experiment [2] the test system is Isolated guinea pig hearts. Nature of the experiment: Example 6: isolated hearts, 18 hours cold ischemic storage and warm reperfusion. On the procedure:
Isolated guinea pig hearts will be perfused with St. Thomas solution alone or St. Thomas solution containing peptide conjugates (1-100 nM), aromatic-cationic peptides (e.g., an equivalent molar dose of aromatic-cationic peptide based on the concentration of the aromatic-cationic peptide administered in the peptide conjugate treatment group), SPN10(s) (e.g., an equivalent molar dose of SPN10 based on the concentration of SPN10 administered in the peptide conjugate treatment group), or SPN10(s) in combination with aromatic-cationic peptides (e.g., an equivalent molar dose of SPN10 based on the concentration of SPN10 administered in the peptide conjugate treatment group and an equivalent molar dose of aromatic-cationic peptide based on the concentration of aromatic-cationic peptide administered in the peptide conjugate treatment group) for 3 minutes and then stored in the same solution at 4° C. for 18 hours. After ischemic storage, hearts will be re-perfused with 34° C. Krebs-Henseleit solution for 90 min. Hearts freshly isolated from guinea pigs will be used as controls.
The hearts will be fixed in paraffin and sliced for immunostaining with an anti-CD36 rabbit polyclonal antibody. It is anticipated that the sections from a representative heart stored in St. Thomas solution for 18 hours at 4° C. will show increased CD36 staining compared to freshly isolated controls.
It is also anticipated that there will be a decrease in lipid peroxidation in the hearts treated with peptide conjugates, aromatic-cationic peptides, or SPN10(s) (with or without aromatic-cationic peptides). […]

For `N=C(N)NCCC[C@H](NC(=O)[C@@H](N)Cc1c[nH]c2ccccc12)C(=O)N[C@@H](Cc1c[nH]c2ccccc12)C(=O)N[C@@H](CCCCN)C(N)=O` [SPN10, H-L-Trp-L-Arg-L-Trp-L-Lys-NH2] (H-WRWK-NH2), in experiment [1], the “anatomic zone of no-reflow in the brain” value was “prevent or reduce” and the infarct volume entry is “significant reduction”. The “coronary blood flow after cold ischemic storage and warm reperfusion” value in experiment [2] is listed as “significant improvement of coronary blood flow”. The “HNE staining in stored hearts” value in experiment [2] (18 hours cold ischemia, 90 minutes reperfusion) is “reduced”. Moreover, the “CD36 staining in stored hearts” value in experiment [2] (St. Thomas solution, 18 hours, 4° C.) is “significantly reduced”.

The values are drawn from patent US20240108740A1, “THERAPEUTIC COMPOSITIONS INCLUDING SPN10 AND USES THEREOF” (Stealth BioTherapeutics Inc., priority 2022, published 2024).
